Data: publication PMC7946891, “Versatility in acyltransferase activity completes chicoric acid biosynthesis in purple coneflower” (Nature Communications, 2021)

Target: T1, EpHCT (Echinacea purpurea, UniProt A0A890VVY1)
T1 construct: full-length CDS, N-terminal 6xHis (pDEST17), E. coli BL21(DE3), Ni-NTA purified
Assay: in vitro enzyme assay, LC-HRMS product detection
Type: biochemical

T1 sequence (A0A890VVY1 1-434): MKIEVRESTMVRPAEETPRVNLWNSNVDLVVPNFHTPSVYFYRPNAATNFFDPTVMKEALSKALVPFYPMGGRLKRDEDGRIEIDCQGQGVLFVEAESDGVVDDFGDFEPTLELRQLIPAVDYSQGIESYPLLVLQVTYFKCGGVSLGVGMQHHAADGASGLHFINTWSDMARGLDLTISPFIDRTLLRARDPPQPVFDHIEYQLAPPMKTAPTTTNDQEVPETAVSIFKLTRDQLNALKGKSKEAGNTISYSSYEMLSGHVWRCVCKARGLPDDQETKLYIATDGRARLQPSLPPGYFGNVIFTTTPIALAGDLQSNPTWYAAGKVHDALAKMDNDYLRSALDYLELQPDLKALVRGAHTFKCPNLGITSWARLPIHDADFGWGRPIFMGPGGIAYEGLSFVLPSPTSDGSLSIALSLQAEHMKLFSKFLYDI

Compound	in vitro enzyme assay, LC-HRMS product detection (shikimic acid as acyl acceptor)	in vitro enzyme assay, LC-HRMS product detection (p-coumaroyl CoA or caffeoyl CoA as acyl donor)
CC(C)(COP(=O)(O)OP(=O)(O)OC[C@H]1O[C@@H](n2cnc3c(N)ncnc32)[C@H](O)[C@@H]1OP(=O)(O)O)[C@@H](O)C(=O)NCCC(=O)NCCSC(=O)/C=C/c1ccc(O)cc1 [p-coumaroyl CoA]	production of p-coumaroyl shikimic acid using p-coumaroyl CoA and shikimic acid as substrates	–
O=C(O)C1=C[C@@H](O)[C@@H](O)[C@H](O)C1 [shikimic acid]	–	production of p-coumaroyl shikimic acid using p-coumaroyl CoA and shikimic acid as substrates
